Source: patent publication US20180264134A1, “A COMPOSITION OF GOLD NANOPARTICLES HAVING ANTIMICROBIAL PEPTIDES BOUND ON THEIR SURFACE FOR USE THE TREATMENT OF WOUND HEALING OR IN THE TREATMENT OF ISCHEMIC OR VASCULAR DISEASES OR IN THE TREATMENT OF SKIN DISORDERS” (priority 2015, published 2018)
Values after ≈ are worked out from the molar mass of the structure shown. “Also recorded” adds a separate entry of the source.

Experiments:
[1] = tested on: Escherichia coli (ATCC 25922); format: cell-based; conditions: 10^5 CFU of E. coli
Experimental: The antimicrobial activity testing may be: Escherichia coli (ATCC 25922) was grown at 37° C. and maintained on LB plates (Luria-Bertani broth with 1.5% agar). […] Aliquots (100 μL) were taken out from the respective suspensions at 2 h intervals and diluted in PBS buffer to give 10^3 bacteria per mL and plated on LB agar plates followed by incubation at 37° C. Colonies were counted after 24 h of incubation. The collected supernatant was tested for antimicrobial activity as described above.

[2] = tested on: HaCaT cells; experiment: Scratch assay in HaCaT; format: cell-based, human
Experimental: Scratch Assay in HaCaT. HaCaT cells (passage 35-40) were seeded at a density of 2×10^4 cells/well in fibronectin-coated 96-well plate in DMEM supplemented with 1% (v/v) penicillin and streptomycin and 10% (v/v) FBS. After 48 h, cells were firstly starved for 15 h in DMEM with 0.5% FBS and then incubated with LL-37 (1 μg/mL), LL-37 AUNPs and AUNPs (200 μg/mL) for 5 h at 37° C. and 5% CO2. All the chemical inhibitors for FPRL1, EGFR, ADAM17 and Purinergic receptor were added into cells 1 hour before and for all the incubation time with LL37, LL37-Au NPs or AuNPs. After treatments, cells were washed twice with PBS to remove non-internalized NPs and a scratch was created with a sterile pipet tip. The detached cells were washed twice with PBS and then plates were re-coated with fibronectin (10 μg/mL in starvation medium) for 1 hour at 37° C. At this point (t=0), the first images were taken on In Cell Microscope 2000 (GE Healthcare) (objective 2×). Then cells were washed and maintained in starvation medium up to 72 h. During this time, cell migration was monitored and more images were taken up to 72 h. Scratch areas were quantified using the AxioVision software (Carl Zeiss). Wound areas were normalized by the initial area (n=8 images). On the other hand, to test the prolonged effect of LL37-Au NPs on HaCaT migration, cells were plated in fibronectin-coated 24-well plate (2×10^5 cells/well), after 48 h cells were starved for 15 h in DMEM with 0.5% FBS and then the scratch was made with a sterile pipet tip. Only after the cells were incubated with LL-37 (1 μg/mL), LL37-Au NPs and AuNPs (15 μg/mL) in starvation medium up to 96 h. During this time, cell migration was monitored and images were taken and scratch area quantified.
In an embodiment, the NP bioactivity was carried out by scratch assay. Keratinocytes (passage 35-40) were seeded at a density of 2×10^4 cells/well in fibronectin-coated 96-well plate in DMEM supplemented with 1% (v/v) penicillin and streptomycin and 10% (v/v) FBS. After 48 h, cells were initially starved for 15 h in DMEM with 0.5% FBS, inactivated with mitomycin (5 μg/mL) for 2 h, and then incubated with LL37 (1 μg/mL), LL37-Au NPs or Au NPs (both at 200 μg/mL) for 5 h at 37° C. and 5% CO2. In case of chemical inhibition, the chemical inhibitors for FPRL1 (WRW4, Calbiochem, 10 μM), EGFR (Erlotinib HCL, OSI-744, Selleck Chemicals, 2 nM), ADAM17 (Marimastat, Sigma, 10 μM), P2X (PPADS, Sigma, 100 μM), for P2X7 (A-740003, Sigma, at a concentration of 500 nM), were added to the cells 1 h before the incubation with LL37 peptide and LL37-Au NPs and then maintained during the assay. […] After the 5 h treatment, cells were washed twice with PBS to remove non-internalized NPs and a scratch was created with a sterile pipette tip. The detached cells were washed twice with PBS and then plates were re-coated with fibronectin (10 μg/mL in starvation medium) for 1 h at 37° C. Cells were washed and maintained in starvation medium up to 72 h. Cell migration was monitored overtime by a in Cell Microscope 2000 (GE Healthcare) (objective 2×). The cells treated with LL37 peptide were cultured with starvation medium containing LL37 for the entire duration of the experiment. Scratch areas were quantified using the AxioVision software (Carl Zeiss). Wound areas were normalized by the initial area (n=6 images). In case of siRNA knock-down studies, on-target plus human ADAM17 siRNA or P2X7R siRNA (both from Dharmacon) were used to silence ADAM17 or P2X7 before performing the scratch assay. Keratinocytes were transfected with 50 nM siRNA using 0.25 μL of Lipofectamine RNAiMAX (Life Technologies) for 24 h in antibiotic-free complete medium before starting the scratch assay. […]

[3] = tested on: ERK1/2; experiment: ERK1/2 phosphorylation in HaCaT (ELISA); format: cell-based, human; conditions: LL37 5 μg/mL; LL37-Au NPs 200 μg/mL
Experimental: In an embodiment the detection of EGFR and ERK1/2 phosphorylation, can be perform by: the activation of EGFR receptor in HaCaT (80% confluency, in 6-well plates) was induced by starving the cells for 24 h in DMEM supplemented with 1% (v/v) penicillin and adding soluble LL37, LL37-Au NPs and Au NPs for a given period of time. Following treatment, the plates were immersed in ice and the medium was discarded. Then the proteins were isolated from the cells . . . . The levels of EGFR (phosphorylated EGFR and total EGFR) were determined by ELISA kit (R&D Systems). The activation of ERK signaling pathways in HaCaT (80% confluency, in one 96-well cell culture clear-bottom black microplate) were obtained starving the cells for 24 h in DMEM supplemented with 1% (v/v) penicillin and then stimulating them with soluble LL37 (5 μg/mL), LL37-Au NPs and Au NPs (200 μg/mL). After treatments the level of ERK were determined using a phosphoprotein and total protein ELISA kit (R&D Systems ref. KCB1018) according to the manufacture's instructions. Data were acquired with a BioTek synergy MX microplate reader.

[4] = tested on: venous leg ulcers; conditions: cited from earlier work

## CC[C@H](C)[C@H](NC(=O)[C@H](CCCCN)NC(=O)[C@H](CCC(=O)O)NC(=O)[C@H](CCCCN)NC(=O)[C@H](CO)NC(=O)[C@H](CCCCN)NC(=O)[C@H](CCCNC(=N)N)NC(=O)[C@H](Cc1ccccc1)NC(=O)[C@H](Cc1ccccc1)NC(=O)[C@H](CC(=O)O)NC(=O)CNC(=O)[C@H](CC(C)C)NC(=O)[C@@H](N)CC(C)C)C(=O)NCC(=O)N[C@@H](CCCCN)C(=O)N[C@@H](CCC(=O)O)C(=O)N[C@@H](Cc1ccccc1)C(=O)N[C@@H](CCCCN)C(=O)N[C@@H](CCCNC(=N)N)C(=O)N[C@H](C(=O)N[C@H](C(=O)N[C@@H](CCC(N)=O)C(=O)N[C@@H](CCCNC(=N)N)C(=O)N[C@H](C(=O)N[C@@H](CCCCN)C(=O)N[C@@H](CC(=O)O)C(=O)N[C@@H](Cc1ccccc1)C(=O)N[C@@H](CC(C)C)C(=O)N[C@@H](CCCNC(=N)N)C(=O)N[C@@H](CC(N)=O)C(=O)N[C@@H](CC(C)C)C(=O)N[C@H](C(=O)N1CCC[C@H]1C(=O)N[C@@H](CCCNC(=N)N)C(=O)N[C@H](C(=O)N[C@@H](CCC(=O)O)C(=O)N[C@@H](CO)C(=O)N[C@@H](CS)C(N)=O)[C@@H](C)O)C(C)C)[C@@H](C)CC)C(C)C)[C@@H](C)CC [LL37]
[1]
  minimal inhibition concentration (MIC): 5 µg/mL (≈ 1.09 µM)
[2]; A-740003 500 nM
  effect of P2X7 antagonist A-740003 on migration: inhibited; also recorded: significant decrease
[2]; Erlotinib 2 nM
  effect of EGFR inhibitor Erlotinib on migration: decreased significantly
[2]; LL37 1 μg/mL, NPs 200 μg/mL, listed as LL37 peptide
  migration of keratinocytes: induced the migration; also recorded: induce the migratory properties
[2]; Marimastat 10 μM
  effect of ADAM inhibitor Marimastat on migration: significantly decreased; also recorded: significant decrease
[2]; PPADS 100 μM
  effect of purinergic antagonist PPADS on migration: inhibited; also recorded: significant decrease
[2]; WRW4 10 μM
  effect of FPRL-1 antagonist WRW4 on migration: no measurable effect
[2]; siRNA ADAM17
  effect of ADAM17 siRNA knockdown on migration: decreased the migratory properties; also recorded: reduced migratory effect
[2]; siRNA P2X7
  effect of P2X7 siRNA knockdown on migration: inhibited; also recorded: reduced migratory effect
[3]
  time of peak ERK1/2 phosphorylation: 4 min
[4]; patients with venous leg ulcers
  primary safety and tolerability end-point: met
[4]; twice per week, 0.5 mg/mL
  healing rate compared with placebo: statistically significant improved healing rate
